Laboratory results taken from PMC10447463, “Data-mining unveils structure–property–activity correlation of viral infectivity enhancing self-assembling peptides” (Nature Communications, 2023).
Like-named read-outs stand apart in the source and are kept apart here.

What was measured:
[1] = test system: HIV-1 infection of TZM-bl cells; test: HIV-1 infectivity enhancement assay, β-galactosidase luminescence; type: cell-based; details: for Rel-EFC / Log10 Infection Rel EFC: 1.3 µM peptide; for Rel-EFC: infection relative to EF-C (QCKIKQIINMWQ = 1); for Log10 Infection Rel EFC: log10 of infection relative to EF-C; for Log Infectivity: Log10 infection relative to EF-C, TZM-bl cells, asymmetric std dev errors; for Log10 Infection Rel EF-C: HIV-1 infection of TZM-bl cells; for Abs. Inf.: absolute infection signal, HIV-1 on TZM-bl cells, β-galactosidase luminescence; for Log10 Inf. rel. to EF-C: log10 of HIV-1 infection of TZM-bl cells relative to EF-C (EF-C = 0); for Abs. Infection at 0.26 µM / Abs. Infection at 1.3 µM: mean of n = 3, Figure 4A; for Log10 of Rel to EFC (Feb2021): Log10 of infection relative to EF-C, all peptides of FigS16
[2] = type: physicochemical; set-up: key to Fibril / Fibril Formation / TEM 2cat / Fibril: 1 = fibrils present; 0 non-fibrillar structures; details: for Fibril / Fibril Formation: 1 mg/mL, uranyl acetate stain, qualitative
[3] = Zeta-potential measurement; type: physicochemical
Outline: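 Charge on peptide aggregates was assessed by electrophoretic mobility in 1 mM KCl, converted per Smoluchowski. Prior aggregation: 1 mg/mL, pH 7.4 PBS, 1 d, RT.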

[4] = Turbidity, derived count rate of scattered light; type: physicochemical; details: for Count Rate: derived count rate of scattered light (turbidity); for Log10 Count Rate: turbidity, derived count rate of scattered light, data of Figure 2D
[5] = Fig. S7 panel A (plotted against β-sheet content)
[6] = Fig. S7 panel B (plotted against CR), rounded to two decimals
[7] = Log10 of infection rate relative to EF-C, Figure 3A source data
[8] = infection rate relative to EF-C, log10, data of Figure 2D
[9] = infection rate relative to EF-C, log10, source data of Figure 2C
[10] = FigS12 panel A, fibril category by TEM
[11] = TEM, 1 = fibrils present, 0 = non-fibrillar
[12] = TEM, 1 = fibrils present, 0 = non-fibrillar structures
[13] = zeta-potential of peptide, source data of Figure 2C
[14] = zeta-potential of the peptide assemblies, mean, Figure 3A source data
[15] = zeta potential of peptide assemblies
[16] = category: fibrils present or non-fibrillar

Substance	Rel-EFC [1]	Log10 Infection Rel EFC [1]	Log Infectivity [1, 5]	Log Infectivity [1, 6]	Log10 Infection Rel EF-C [1, 7]	Log10 Infection Rel EF-C [1, 8]	Log10 Infection Rel EF-C [1, 9]	Abs. Inf. [1]	Log10 Inf. rel. to EF-C [1]	TEM 2cat ([2]; Fig S10 panel D)	TEM 2cat [2, 10]	Fibril ([2]; FigS12 panel B, TEM)	Fibril / Fibril Formation ([2]; TEM)	Fibril [2, 11]	Fibril [2, 12]	Zeta-Pot. [3]	Zeta-Potential / mV [3, 13]	Zeta-Potential / mV [3, 14]	Count Rate [4]	Log10 Count Rate [4]	further results
CHLHLQL	0,1	-1,01	-1.008	-1.01	-1.01	-1.008	-1.008	2934	-1.008	0	0	0	0	0	0	-12.27	-10.37 mV	-12.27 mV	1155	3.062	Abs. Infection at 0.26 µM ([1]; peptide 0.26 µM): 572.2; Infect 1 0.26 µM ([1]; peptide 0.26 µM, replicate 1, absolute infection signal, Figure 4A): 545.6; Infect 2 0.26 µM ([1]; peptide 0.26 µM, replicate 2, absolute infection signal, Figure 4A): 488.9; Infect 3 0.26 µM ([1]; peptide 0.26 µM, replicate 3, absolute infection signal, Figure 4A): 682.2; Abs. Infection at 1.3 µM ([1]; peptide 1.3 µM): 2934; Infect 1 .3 µM ([1]; peptide 1.3 µM, replicate 1, absolute infection signal, Figure 4A): 3586; Infect 2 1.3µM ([1]; peptide 1.3 µM, replicate 2, absolute infection signal, Figure 4A): 2346; Infect 3 1.3 µM ([1]; peptide 1.3 µM, replicate 3, absolute infection signal, Figure 4A): 2872; Fibril ([2]; Fig S10 panel E): 0
TKTLTKTL	0,02	-1,67	-1.671		-1.67	-1.671	-1.671	316.7	-1.671	0	0	0	0	0	0	-25.1	-13.63 mV	-25.1 mV	514.6	2.711	
HHHHEIEIEIEI	0,03	-1,53	-1.534		-1.53	-1.534	-1.534			0	0	0	0	0	0		-6.272 mV	-6.91 mV	103.3	2.014	Zeta-Pot. [3, 15]: -6.91
HGEHGE	0,01	-2,19	-2.193		-2.19	-2.193	-2.193	140	-2.193	0	0	0	0	0	0	-12.6	-8.73 mV	-12.6 mV	240.6	2.381	
NMWQKIKIQI	0,21	-0,69	-0.6877		-0.69	-0.6877	-0.6877		-0.6877	1			1	1	1		7.36 mV	8.26 mV	10024.06667	4.001	Log10 of Rel to EFC (Feb2021) [1]: -0.69; TEM 2cat [2, 16]: 1; Zeta-Pot. [3, 15]: 8.26
QCKIKIQINMWQ	1,04	0,02	0.01546	0.02	0.02	0.01546	0.01546	21221.11111	0.01546	1			1	1	1	11.73	11.38 mV	11.73 mV	8271	3.918	Log10 of Rel to EFC (Feb2021) [1]: 0.02; Fibril ([2]; Fig S10 panel E): 1; TEM 2cat [2, 16]: 1
CKFKFQF	1,23	0,09	0.09083	0.09	0.09	0.09083	0.09083	20066.66667	0.09083	1			1	1	1	19.73	17.4 mV	19.73 mV	5303	3.725	Log10 of Rel to EFC (Feb2021) [1]: 0.09; Abs. Infection at 0.26 µM ([1]; peptide 0.26 µM): 5684; Abs. Infection at 1.3 µM ([1]; peptide 1.3 µM): 20066.66667; Fibril ([2]; Fig S10 panel E): 1; TEM 2cat [2, 16]: 1; Zeta pot. / mV ([3]; zeta potential of the peptide assemblies): 19.73 mV
CEIEIQI	0,03	-1,55	-1.554	-1.55	-1.55	-1.554	-1.554	633.3	-1.554	1	1	1	1	1	1	-26.1	-24.43 mV	-26.1 mV	51.97	1.716	Fibril ([2]; Fig S10 panel E): 1
HGEHGEHGE	0,02	-1,72	-1.72	-1.72	-1.72	-1.72	-1.72	360	-1.72	0	0	0	0	0	0	-24.2	-14.63 mV	-24.2 mV	340.4	2.532	Fibril ([2]; Fig S10 panel E): 0
QCKFKFQFNMWQ	0,62	-0,21	-0.2086	-0.21	-0.21	-0.2086	-0.2086	19753.33333	-0.2086	1			1	1	1	21.07	16.85 mV	21.07 mV	1208	3.082	Log10 of Rel to EFC (Feb2021) [1]: -0.21; Fibril ([2]; Fig S10 panel E): 1; TEM 2cat [2, 16]: 1
EIEIEIEI	0,02	-1,75	-1.748		-1.75	-1.748	-1.748		-1.748	1	1	1	1	1	1		-7.535 mV	-8.92 mV	538.4	2.731	Zeta-Pot. [3, 15]: -8.92
CKYKYQY	0,04	-1,39	-1.3903		-1.39	-1.3903	-1.3903			0	0	0	0	0	0		3.282 mV	1.49 mV	1061	3.026	Zeta-Pot. [3, 15]: 1.49
